Assays:
Settings in all cases: 48 h
P12-Ichikawa [1] = assay: AUC of viability dose-response curve (% viability x log10 dose units); higher = less sensitive
Procedure, shortened: (§1)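 Leukemia cells adapted to each medium were seeded in 1536-well plates (500 or 1000 cells/well) and given library compounds in DMSO for 48 h at 37°C. The 11 threefold doses spanned 47 μM to 0.79 nM, and CellTiter-Glo One luminescence was normalised per plate to DMSO and cell-free wells before four-parameter log-logistic fitting on log10 dose. Area under the curve was integrated with the trapezoidal rule, scaling curves above full viability and removing curves that failed quality control.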

NOMO1 [2] = assay: as above
Procedure, shortened: as §1

SEM cells [3] = assay: cell viability relative to DMSO control; higher = less cytotoxic
Procedure, shortened: (§2)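 Cells were incubated for 48 h at 37°C before CellTiter-Glo One luminescence was read. The cells were NOMO1 or SEM (500 cells/well) or P12-Ichikawa (1000 cells/well) leukemia cells, adapted for at least four passages in each medium and seeded in 1536-well plates (5 μl). Dosing used library compounds in DMSO applied by pin over 11 threefold points, 47 μM to 0.79 nM. Viability is the per-plate percentage of DMSO wells, with cell-free wells as background.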

P12-Ichikawa [4] = assay: as above
Procedure, shortened: as §2

NOMO1 [5] = assay: as above
Procedure, shortened: as §2

SEM cells [6] = assay: AUC of viability dose-response curve (% viability x log10 dose units); higher = less sensitive
Procedure, shortened: as §1

CCCCc1ccc2[nH]c(NC(=O)OC)nc2c1
AUC of viability dose-response curve
Settings	HPLM + 10% dialyzed FBS	RPMI 5 mM glucose + 10% FBS	RPMI 5 mM glucose + 10% dialyzed FBS
NOMO1 [2]	304	273	293
P12-Ichikawa [1]	252	261	289

cell viability [%]
Settings	NOMO1 [5]	P12-Ichikawa [4]	SEM cells [3]
HPLM + 10% dialyzed FBS, 0.000781 µM	108	104	75.4
HPLM + 10% dialyzed FBS, 0.00234 µM	103	106	92.3
HPLM + 10% dialyzed FBS, 0.00702 µM	106	105	98.4
HPLM + 10% dialyzed FBS, 0.0211 µM	111	101	79.4
HPLM + 10% dialyzed FBS, 0.0632 µM	95.3	85.9	72.3
HPLM + 10% dialyzed FBS, 0.19 µM	37.6	22.9	26.6
HPLM + 10% dialyzed FBS, 0.569 µM	31.9	18.4	25.9
HPLM + 10% dialyzed FBS, 1.71 µM	33.3	27.1	23.8
HPLM + 10% dialyzed FBS, 5.12 µM	42.8	13.8	26.2
HPLM + 10% dialyzed FBS, 15.4 µM	37.3	16.2	23
HPLM + 10% dialyzed FBS, 46.1 µM	47.7	11	16.1
RPMI 5 mM glucose + 10% FBS, 0.000781 µM	102	99.7	80
RPMI 5 mM glucose + 10% FBS, 0.00234 µM	109	112	81.5
RPMI 5 mM glucose + 10% FBS, 0.00702 µM	120	101	87.2
RPMI 5 mM glucose + 10% FBS, 0.0211 µM	110	106	75.5
RPMI 5 mM glucose + 10% FBS, 0.0632 µM	99.8	92.6	52.4
RPMI 5 mM glucose + 10% FBS, 0.19 µM	34.2	17.6	16.4
RPMI 5 mM glucose + 10% FBS, 0.569 µM	26.1	16.8	15.6
RPMI 5 mM glucose + 10% FBS, 1.71 µM	24.4	26.7	14.5
RPMI 5 mM glucose + 10% FBS, 5.12 µM	25.8	24.1	18
RPMI 5 mM glucose + 10% FBS, 15.4 µM	23.8	22.2	13.1
RPMI 5 mM glucose + 10% FBS, 46.1 µM	24.2	16.5	10.8
RPMI 5 mM glucose + 10% dialyzed FBS, 0.000781 µM	94.2	92.4	98.8
RPMI 5 mM glucose + 10% dialyzed FBS, 0.00234 µM	96.6	98.4	95.8
RPMI 5 mM glucose + 10% dialyzed FBS, 0.00702 µM	101	103	102
RPMI 5 mM glucose + 10% dialyzed FBS, 0.0211 µM	95.3	102	77.2
RPMI 5 mM glucose + 10% dialyzed FBS, 0.0632 µM	101	97.5	56.9
RPMI 5 mM glucose + 10% dialyzed FBS, 0.19 µM	37.1	31	23.5
RPMI 5 mM glucose + 10% dialyzed FBS, 0.569 µM	29.1	25.7	18.2
RPMI 5 mM glucose + 10% dialyzed FBS, 1.71 µM	27.4	37.7	20.8
RPMI 5 mM glucose + 10% dialyzed FBS, 5.12 µM	31.6	27.9	23.6
RPMI 5 mM glucose + 10% dialyzed FBS, 15.4 µM	34.1	29.3	19.4
RPMI 5 mM glucose + 10% dialyzed FBS, 46.1 µM	31.8	23.1	12.4

Nc1ccc(C(=O)Nc2cccc(-c3nc(N4CCOCC4)c4oc5ncccc5c4n3)c2)cn1
AUC of viability dose-response curve
Settings	HPLM + 10% dialyzed FBS	RPMI 5 mM glucose + 10% FBS	RPMI 5 mM glucose + 10% dialyzed FBS
NOMO1 [2]	410	442	403
P12-Ichikawa [1]	450	428	430

cell viability [%]
Settings	NOMO1 [5]	P12-Ichikawa [4]	SEM cells [3]
HPLM + 10% dialyzed FBS, 0.000781 µM	122	125	119
HPLM + 10% dialyzed FBS, 0.00234 µM	118	122	120
HPLM + 10% dialyzed FBS, 0.00702 µM	135	125	130
HPLM + 10% dialyzed FBS, 0.0211 µM	121	121	113
HPLM + 10% dialyzed FBS, 0.0632 µM	115	120	115
HPLM + 10% dialyzed FBS, 0.19 µM	122	127	107
HPLM + 10% dialyzed FBS, 0.569 µM	128	120	96.3
HPLM + 10% dialyzed FBS, 1.71 µM	98.8	124	116
HPLM + 10% dialyzed FBS, 5.12 µM	67.7	97.3	90.1
HPLM + 10% dialyzed FBS, 15.4 µM	74.5	100	85.8
HPLM + 10% dialyzed FBS, 46.1 µM	49.3	87.8	4.82
RPMI 5 mM glucose + 10% FBS, 0.000781 µM	118	118	88
RPMI 5 mM glucose + 10% FBS, 0.00234 µM	123	119	80.1
RPMI 5 mM glucose + 10% FBS, 0.00702 µM	129	115	71.8
RPMI 5 mM glucose + 10% FBS, 0.0211 µM	104	114	75.2
RPMI 5 mM glucose + 10% FBS, 0.0632 µM	118	124	83.9
RPMI 5 mM glucose + 10% FBS, 0.19 µM	110	112	68.1
RPMI 5 mM glucose + 10% FBS, 0.569 µM	115	103	71.7
RPMI 5 mM glucose + 10% FBS, 1.71 µM	108	101	77.4
RPMI 5 mM glucose + 10% FBS, 5.12 µM	82.8	81.5	57.9
RPMI 5 mM glucose + 10% FBS, 15.4 µM	83.4	94.7	38.9
RPMI 5 mM glucose + 10% FBS, 46.1 µM	91	77.2	3.46
RPMI 5 mM glucose + 10% dialyzed FBS, 0.000781 µM	115	–	129
RPMI 5 mM glucose + 10% dialyzed FBS, 0.00234 µM	124	–	119
RPMI 5 mM glucose + 10% dialyzed FBS, 0.00702 µM	107	–	116
RPMI 5 mM glucose + 10% dialyzed FBS, 0.0211 µM	113	–	111
RPMI 5 mM glucose + 10% dialyzed FBS, 0.0632 µM	110	–	114
RPMI 5 mM glucose + 10% dialyzed FBS, 0.19 µM	119	–	102
RPMI 5 mM glucose + 10% dialyzed FBS, 0.569 µM	91	–	104
RPMI 5 mM glucose + 10% dialyzed FBS, 1.71 µM	84.9	–	107
RPMI 5 mM glucose + 10% dialyzed FBS, 5.12 µM	65	–	79.1
RPMI 5 mM glucose + 10% dialyzed FBS, 15.4 µM	73.7	–	64
RPMI 5 mM glucose + 10% dialyzed FBS, 46.1 µM	61.5	–	5.84

Cc1cc(NC(=O)Nc2ccc(N(C)C)cc2)c2cc(F)cc(F)c2n1
AUC of viability dose-response curve
Settings	NOMO1 [2]	P12-Ichikawa [1]	SEM cells [6]
HPLM + 10% dialyzed FBS	457	475	465
RPMI 5 mM glucose + 10% FBS	466	461	468
RPMI 5 mM glucose + 10% dialyzed FBS	440	454	448

N=C(N)NC(=N)NCCc1ccccc1
AUC of viability dose-response curve
Settings	NOMO1 [2]	P12-Ichikawa [1]	SEM cells [6]
HPLM + 10% dialyzed FBS	464	450	465
RPMI 5 mM glucose + 10% FBS	456	440	461
RPMI 5 mM glucose + 10% dialyzed FBS	455	438	444

Nc1cccc([S+](=O)([O-])N2CCCN([S+](=O)([O-])c3ccc4c(c3)OCCO4)CC2)c1
AUC of viability dose-response curve
Settings	NOMO1 [2]	P12-Ichikawa [1]	SEM cells [6]
HPLM + 10% dialyzed FBS	445	444	460
RPMI 5 mM glucose + 10% FBS	464	464	434
RPMI 5 mM glucose + 10% dialyzed FBS	447	460	437

OC1=CC2=C(C(=C1)O)C(=O)\C(=C(/O2)C3=CC(=C(O)C(=C3)O)O)O
AUC of viability dose-response curve
Settings	NOMO1 [2]	P12-Ichikawa [1]	SEM cells [6]
HPLM + 10% dialyzed FBS	451	454	462
RPMI 5 mM glucose + 10% FBS	470	471	460
RPMI 5 mM glucose + 10% dialyzed FBS	458	466	470

Cc1c(CN2CCN([S+](C)(=O)[O-])CC2)sc2c(N3CCOCC3)nc(-c3cnc(N)nc3)nc12
AUC of viability dose-response curve
Settings	NOMO1 [2]	P12-Ichikawa [1]	SEM cells [6]
HPLM + 10% dialyzed FBS	305	371	287
RPMI 5 mM glucose + 10% FBS	350	336	304
RPMI 5 mM glucose + 10% dialyzed FBS	316	332	328

SEM cells [3], RPMI 5 mM glucose + 10% dialyzed FBS
Settings	cell viability [%]
0.000781 µM	118
0.00234 µM	134
0.00702 µM	122
0.0211 µM	105
0.0632 µM	87.3
0.19 µM	86.6
0.569 µM	98.8
1.71 µM	57.9
5.12 µM	50.8
15.4 µM	50.6
46.1 µM	44

O=C(CN1C(=O)C2(CCCC2)NC[C@H]1c1cc(F)cc(F)c1)Nc1ccc2c(c1)C[C@@]1(C2)C(=O)Nc2ncccc21
AUC of viability dose-response curve
Settings	NOMO1 [2]	P12-Ichikawa [1]	SEM cells [6]
HPLM + 10% dialyzed FBS	445	472	461
RPMI 5 mM glucose + 10% FBS	459	466	463
RPMI 5 mM glucose + 10% dialyzed FBS	467	471	446

cell viability [%], SEM cells [3]
Settings	HPLM + 10% dialyzed FBS	RPMI 5 mM glucose + 10% FBS
0.000781 µM	109	123
0.00234 µM	104	104
0.00702 µM	119	126
0.0211 µM	139	142
0.0632 µM	125	131
0.19 µM	131	136
0.569 µM	132	145
1.71 µM	140	131
5.12 µM	142	135
15.4 µM	114	129
46.1 µM	104	129

CN1CCc2c(n(Cc3ccc(C(=O)NO)cc3)c3ccccc23)C1
AUC of viability dose-response curve
Settings	NOMO1 [2]	P12-Ichikawa [1]	SEM cells [6]
HPLM + 10% dialyzed FBS	452	448	443
RPMI 5 mM glucose + 10% FBS	440	453	442
RPMI 5 mM glucose + 10% dialyzed FBS	449	451	452

COc1cc(C)c(/C=C/C(C)=C/C=C/C(C)=C/C(=O)O)c(C)c1C
AUC of viability dose-response curve
Settings	NOMO1 [2]	P12-Ichikawa [1]	SEM cells [6]
HPLM + 10% dialyzed FBS	442	458	450
RPMI 5 mM glucose + 10% FBS	441	441	426
RPMI 5 mM glucose + 10% dialyzed FBS	420	455	450
